Laboratory results reported in the kinase profiling compilation of Christmann-Franck et al. (2016).

Legend:
Assay in all cases: KINOMEscan competition binding
Conditions in all cases: compound 10.0 µM
[1] = target: RPS6KA2 KD1 (human) (UniProt Q15349)
[2] = target: STK16 (human) (UniProt O75716)
[3] = target: EPHB3 (human) (UniProt P54753)
[4] = target: MAP2K6 (human) (UniProt P52564)
[5] = target: JAK1 JH1 catalytic (human) (UniProt P23458)
[6] = target: TNK2 (human) (UniProt Q07912)
[7] = target: STK32A (human) (UniProt Q8WU08)
[8] = target: PRKCI (human) (UniProt P41743)
[9] = target: DYRK1A (human) (UniProt Q13627)
[10] = target: HIPK3 (human) (UniProt Q9H422)
[11] = target: RPS6KA1 KD2 (human) (UniProt Q15418)
[12] = target: CDK3 (human) (UniProt Q00526)
[13] = target: DAPK2 (human) (UniProt Q9UIK4)
[14] = target: ALK (human) (UniProt Q9UM73)
[15] = target: HIPK1 (human) (UniProt Q86Z02)
[16] = target: NEK1 (human) (UniProt Q96PY6)
[17] = target: SRPK2 (human) (UniProt P78362)
[18] = target: ITK (human) (UniProt Q08881)
[19] = target: LIMK2 (human) (UniProt P53671)
[20] = target: FYN (human) (UniProt P06241)
[21] = target: STK35 (human) (UniProt Q8TDR2)
[22] = target: EPHA5 (human) (UniProt P54756)
[23] = target: MUSK (human) (UniProt O15146)
[24] = target: MAP3K11 (human) (UniProt Q16584)
[25] = target: ACVR1B (human) (UniProt P36896)
[26] = target: PAK2 (human) (UniProt Q13177)
[27] = target: SGK3 (human) (UniProt Q96BR1)
[28] = target: PIM1 (human) (UniProt P11309)
[29] = target: CDK14 (human) (UniProt O94921)
[30] = target: MAP3K2 (human) (UniProt Q9Y2U5)
[31] = target: RPS6KA6 KD1 (human) (UniProt Q9UK32)
[32] = tested on: EGFR (human), P00533 [T790M]
[33] = target: PIK3CA (human) (UniProt P42336)
[34] = target: HIPK2 (human) (UniProt Q9H2X6)

Chain of PRKCI (human) (P41743 whole entry, looked up): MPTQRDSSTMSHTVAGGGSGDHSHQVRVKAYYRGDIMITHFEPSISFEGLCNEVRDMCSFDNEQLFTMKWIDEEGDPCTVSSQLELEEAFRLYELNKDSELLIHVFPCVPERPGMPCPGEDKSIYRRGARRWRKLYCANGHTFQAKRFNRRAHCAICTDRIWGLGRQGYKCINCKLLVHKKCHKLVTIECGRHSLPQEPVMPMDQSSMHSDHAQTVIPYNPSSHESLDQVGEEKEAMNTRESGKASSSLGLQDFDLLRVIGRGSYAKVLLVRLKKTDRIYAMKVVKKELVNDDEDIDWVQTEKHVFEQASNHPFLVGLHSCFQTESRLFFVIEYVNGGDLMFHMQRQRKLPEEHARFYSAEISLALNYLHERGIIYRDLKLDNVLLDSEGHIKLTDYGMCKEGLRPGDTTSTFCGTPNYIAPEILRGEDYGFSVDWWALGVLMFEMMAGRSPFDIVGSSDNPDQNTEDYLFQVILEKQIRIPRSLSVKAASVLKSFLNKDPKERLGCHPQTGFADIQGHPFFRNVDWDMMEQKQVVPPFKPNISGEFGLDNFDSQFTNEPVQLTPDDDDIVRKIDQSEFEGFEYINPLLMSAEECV
Chain of MAP3K2 (human) (Q9Y2U5 whole entry, looked up): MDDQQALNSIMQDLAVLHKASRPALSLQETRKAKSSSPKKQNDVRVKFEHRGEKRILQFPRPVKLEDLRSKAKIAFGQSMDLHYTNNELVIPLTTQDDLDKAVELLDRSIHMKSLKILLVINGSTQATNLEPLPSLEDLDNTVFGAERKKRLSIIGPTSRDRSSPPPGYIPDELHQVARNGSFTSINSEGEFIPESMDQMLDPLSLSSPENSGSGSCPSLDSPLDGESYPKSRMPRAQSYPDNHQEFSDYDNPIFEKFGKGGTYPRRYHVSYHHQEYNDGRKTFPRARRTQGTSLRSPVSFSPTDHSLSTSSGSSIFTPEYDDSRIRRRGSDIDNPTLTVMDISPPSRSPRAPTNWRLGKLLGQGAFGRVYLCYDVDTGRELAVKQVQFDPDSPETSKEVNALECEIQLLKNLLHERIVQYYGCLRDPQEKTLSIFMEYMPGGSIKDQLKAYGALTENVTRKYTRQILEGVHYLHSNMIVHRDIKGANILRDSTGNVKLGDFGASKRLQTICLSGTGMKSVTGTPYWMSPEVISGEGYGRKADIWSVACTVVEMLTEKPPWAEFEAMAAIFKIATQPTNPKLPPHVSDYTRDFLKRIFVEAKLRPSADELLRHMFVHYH
Chain of RPS6KA2 KD1 (human) (Q15349 whole entry, looked up): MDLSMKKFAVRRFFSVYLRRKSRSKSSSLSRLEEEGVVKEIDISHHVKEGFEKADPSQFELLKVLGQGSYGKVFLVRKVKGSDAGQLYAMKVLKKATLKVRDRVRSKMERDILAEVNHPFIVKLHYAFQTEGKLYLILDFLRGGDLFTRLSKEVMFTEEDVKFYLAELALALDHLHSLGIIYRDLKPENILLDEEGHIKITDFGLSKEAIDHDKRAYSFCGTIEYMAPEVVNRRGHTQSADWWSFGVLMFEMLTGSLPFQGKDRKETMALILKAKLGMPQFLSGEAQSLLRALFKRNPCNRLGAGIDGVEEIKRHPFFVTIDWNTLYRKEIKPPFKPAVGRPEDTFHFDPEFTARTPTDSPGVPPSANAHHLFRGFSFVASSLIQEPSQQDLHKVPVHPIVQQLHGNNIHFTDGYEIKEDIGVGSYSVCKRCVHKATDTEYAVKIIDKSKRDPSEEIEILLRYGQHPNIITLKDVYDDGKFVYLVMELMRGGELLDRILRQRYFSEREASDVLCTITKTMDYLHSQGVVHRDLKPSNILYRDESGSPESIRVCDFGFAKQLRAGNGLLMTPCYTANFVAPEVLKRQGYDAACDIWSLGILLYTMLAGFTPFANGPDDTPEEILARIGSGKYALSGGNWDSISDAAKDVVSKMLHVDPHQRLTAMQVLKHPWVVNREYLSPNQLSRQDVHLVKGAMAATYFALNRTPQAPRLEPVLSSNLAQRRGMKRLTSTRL
Chain of HIPK3 (human) (Q9H422 whole entry, looked up): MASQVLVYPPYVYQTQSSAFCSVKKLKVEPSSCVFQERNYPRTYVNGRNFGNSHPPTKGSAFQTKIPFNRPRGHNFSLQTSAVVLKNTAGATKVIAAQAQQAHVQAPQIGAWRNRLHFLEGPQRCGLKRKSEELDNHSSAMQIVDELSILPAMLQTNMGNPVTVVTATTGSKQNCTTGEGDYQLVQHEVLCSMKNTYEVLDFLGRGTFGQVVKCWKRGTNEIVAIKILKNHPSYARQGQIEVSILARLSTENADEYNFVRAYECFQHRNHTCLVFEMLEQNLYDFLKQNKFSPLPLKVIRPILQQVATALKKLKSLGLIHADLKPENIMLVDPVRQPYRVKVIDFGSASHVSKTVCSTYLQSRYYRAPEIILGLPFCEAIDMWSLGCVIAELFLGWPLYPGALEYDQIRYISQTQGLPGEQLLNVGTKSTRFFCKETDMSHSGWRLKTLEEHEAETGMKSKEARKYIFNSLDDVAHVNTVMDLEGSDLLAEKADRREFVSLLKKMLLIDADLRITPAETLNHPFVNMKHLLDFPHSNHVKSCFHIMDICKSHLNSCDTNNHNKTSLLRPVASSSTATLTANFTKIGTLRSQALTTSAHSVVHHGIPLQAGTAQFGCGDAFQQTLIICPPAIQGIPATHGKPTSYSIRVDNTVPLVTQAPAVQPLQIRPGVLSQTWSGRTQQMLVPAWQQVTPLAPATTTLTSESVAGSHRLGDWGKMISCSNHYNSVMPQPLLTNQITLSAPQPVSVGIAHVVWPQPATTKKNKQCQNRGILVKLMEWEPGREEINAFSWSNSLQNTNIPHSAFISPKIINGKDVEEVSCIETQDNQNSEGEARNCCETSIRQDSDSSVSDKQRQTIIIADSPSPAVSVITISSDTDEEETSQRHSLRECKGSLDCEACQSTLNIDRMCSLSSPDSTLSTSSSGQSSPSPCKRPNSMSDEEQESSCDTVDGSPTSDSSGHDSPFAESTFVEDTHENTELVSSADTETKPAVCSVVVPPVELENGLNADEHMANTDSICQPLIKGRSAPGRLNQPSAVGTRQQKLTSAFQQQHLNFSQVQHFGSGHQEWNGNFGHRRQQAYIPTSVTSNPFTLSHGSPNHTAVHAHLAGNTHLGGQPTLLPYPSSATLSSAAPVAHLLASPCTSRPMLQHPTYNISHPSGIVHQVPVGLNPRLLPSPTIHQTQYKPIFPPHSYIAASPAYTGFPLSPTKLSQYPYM
Chain of MUSK (human) (O15146 whole entry, looked up): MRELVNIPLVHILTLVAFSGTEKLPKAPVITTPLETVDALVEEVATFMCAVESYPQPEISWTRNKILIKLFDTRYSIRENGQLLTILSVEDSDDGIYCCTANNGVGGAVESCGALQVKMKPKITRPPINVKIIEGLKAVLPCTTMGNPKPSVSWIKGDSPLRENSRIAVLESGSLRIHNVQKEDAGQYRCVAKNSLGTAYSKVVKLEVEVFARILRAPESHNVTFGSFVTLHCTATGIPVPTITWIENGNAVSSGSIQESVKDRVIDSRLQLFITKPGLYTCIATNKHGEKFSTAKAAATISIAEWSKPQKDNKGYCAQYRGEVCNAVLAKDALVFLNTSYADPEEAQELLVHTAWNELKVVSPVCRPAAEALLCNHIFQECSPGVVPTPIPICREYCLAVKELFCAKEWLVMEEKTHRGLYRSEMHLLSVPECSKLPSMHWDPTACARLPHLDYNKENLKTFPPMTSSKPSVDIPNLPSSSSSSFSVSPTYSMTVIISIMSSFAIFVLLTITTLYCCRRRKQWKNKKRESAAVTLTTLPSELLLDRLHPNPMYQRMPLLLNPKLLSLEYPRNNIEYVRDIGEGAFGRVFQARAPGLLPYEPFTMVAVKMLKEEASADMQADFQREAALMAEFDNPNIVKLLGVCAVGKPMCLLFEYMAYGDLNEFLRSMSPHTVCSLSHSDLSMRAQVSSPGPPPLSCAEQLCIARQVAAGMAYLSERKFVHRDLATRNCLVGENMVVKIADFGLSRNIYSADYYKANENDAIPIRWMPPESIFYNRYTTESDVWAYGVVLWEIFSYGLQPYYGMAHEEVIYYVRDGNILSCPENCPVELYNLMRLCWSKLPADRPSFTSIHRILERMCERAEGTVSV
Chain of MAP2K6 (human) (P52564 whole entry, looked up): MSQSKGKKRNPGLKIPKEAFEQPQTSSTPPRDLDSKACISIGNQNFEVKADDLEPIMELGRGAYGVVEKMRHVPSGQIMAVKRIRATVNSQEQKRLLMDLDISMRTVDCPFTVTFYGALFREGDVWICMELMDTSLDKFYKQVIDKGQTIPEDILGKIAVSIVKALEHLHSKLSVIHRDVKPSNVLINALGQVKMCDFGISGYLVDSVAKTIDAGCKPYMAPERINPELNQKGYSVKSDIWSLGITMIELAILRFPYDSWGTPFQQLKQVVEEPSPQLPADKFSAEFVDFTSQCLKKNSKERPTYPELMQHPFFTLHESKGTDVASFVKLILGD
Chain of DAPK2 (human) (Q9UIK4 whole entry, looked up): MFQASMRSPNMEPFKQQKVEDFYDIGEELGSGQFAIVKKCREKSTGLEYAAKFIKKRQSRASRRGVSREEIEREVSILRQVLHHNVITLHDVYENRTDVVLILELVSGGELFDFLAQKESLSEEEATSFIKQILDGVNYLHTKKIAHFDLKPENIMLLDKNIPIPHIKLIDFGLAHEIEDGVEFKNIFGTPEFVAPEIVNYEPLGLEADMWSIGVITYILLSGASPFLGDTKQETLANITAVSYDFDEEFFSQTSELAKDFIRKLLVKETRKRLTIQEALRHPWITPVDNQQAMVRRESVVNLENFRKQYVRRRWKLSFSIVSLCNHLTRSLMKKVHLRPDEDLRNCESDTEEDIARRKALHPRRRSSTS
Chain of PIM1 (human) (P11309 whole entry, looked up): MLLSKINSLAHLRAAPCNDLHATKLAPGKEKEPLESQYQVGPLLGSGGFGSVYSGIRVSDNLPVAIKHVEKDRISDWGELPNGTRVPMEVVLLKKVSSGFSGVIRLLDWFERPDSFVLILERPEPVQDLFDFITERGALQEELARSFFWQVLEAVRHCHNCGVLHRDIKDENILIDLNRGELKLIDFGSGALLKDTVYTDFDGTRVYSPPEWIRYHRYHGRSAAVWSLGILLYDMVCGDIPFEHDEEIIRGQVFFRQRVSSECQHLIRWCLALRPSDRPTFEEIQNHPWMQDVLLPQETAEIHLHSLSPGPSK

SMILES | kinase still bound, per cent of control [1] | kinase still bound, per cent of control [3] | kinase still bound, per cent of control [4] | kinase still bound, per cent of control [5] | kinase still bound, per cent of control [6] | kinase still bound, per cent of control [7] | kinase still bound, per cent of control [8] | kinase still bound, per cent of control [10] | kinase still bound, per cent of control [11] | kinase still bound, per cent of control [12] | kinase still bound, per cent of control [13] | kinase still bound, per cent of control [14] | kinase still bound, per cent of control [15] | kinase still bound, per cent of control [16] | kinase still bound, per cent of control [17] | kinase still bound, per cent of control [18] | kinase still bound, per cent of control [19] | kinase still bound, per cent of control [20] | kinase still bound, per cent of control [21] | kinase still bound, per cent of control [22] | further results
CNC(=O)c1cc(Oc2ccc(NC(=O)Nc3ccc(Cl)c(C(F)(F)F)c3)cc2)ccn1 | 55% | 100% | 76% | 50% | 96% | 100% | 100% | 0.6% | 100% | 52% | 87% | 69% | 13% | 88% | 96% | 100% | 57% | 48% | 34% | 30% | kinase still bound, per cent of control [2]: 100%; kinase still bound, per cent of control [9]: 100%; kinase still bound, per cent of control [23]: 0.1%; kinase still bound, per cent of control [24]: 99%; kinase still bound, per cent of control [25]: 92%; kinase still bound, per cent of control [26]: 73%; kinase still bound, per cent of control [27]: 82%; kinase still bound, per cent of control [28]: 98%; kinase still bound, per cent of control [29]: 8.6%; kinase still bound, per cent of control [30]: 100%
COc1cc2ncnc(-n3nc(-c4ccccn4)nc3N)c2cc1OC | 76% | 56% | 46% | 100% | 54% | 64% | 55% | 0% | 14% | 82% | 12% | 45% | 0.55% | 36% | 88% | 100% | 20% | 25% | 24% | 19% | kinase still bound, per cent of control [2]: 2.8%; kinase still bound, per cent of control [31]: 20%; kinase still bound, per cent of control [32]: 67%; kinase still bound, per cent of control [9]: 0.1%; kinase still bound, per cent of control [33]: 38%; kinase still bound, per cent of control [34]: 0.65%; kinase still bound, per cent of control [23]: 71%; kinase still bound, per cent of control [24]: 63%; kinase still bound, per cent of control [25]: 14%; kinase still bound, per cent of control [26]: 37%; kinase still bound, per cent of control [27]: 74%; kinase still bound, per cent of control [28]: 15%; kinase still bound, per cent of control [29]: 62%; kinase still bound, per cent of control [30]: 33%
COCC(=O)NC/C=C/c1ccc2ncnc(Nc3ccc(Oc4ccc(C)nc4)c(C)c3)c2c1 | 78% | 86% | 93% | 100% | 78% | 100% | 93% | 100% | 73% | 100% | 89% | 100% | 88% | 83% | 92% | 92% | 100% | 100% | 65% | 100% | kinase still bound, per cent of control [31]: 96%; kinase still bound, per cent of control [33]: 100%; kinase still bound, per cent of control [23]: 100%; kinase still bound, per cent of control [24]: 92%; kinase still bound, per cent of control [25]: 100%; kinase still bound, per cent of control [26]: 87%; kinase still bound, per cent of control [27]: 100%; kinase still bound, per cent of control [28]: 100%; kinase still bound, per cent of control [29]: 100%; kinase still bound, per cent of control [30]: 100%
CN(C)C/C=C/C(=O)Nc1ccc(C(=O)Nc2cccc(Nc3nccc(-c4cccnc4)n3)c2)cc1 | 83% | 75% | 47% | 100% | 100% | 95% | 100% | 4.2% | 91% | 96% | 81% | 100% | 6% | 63% | 100% | 100% | 92% | 100% | 80% | 97% | kinase still bound, per cent of control [2]: 1.2%; kinase still bound, per cent of control [31]: 51%; kinase still bound, per cent of control [32]: 65%; kinase still bound, per cent of control [9]: 28%; kinase still bound, per cent of control [33]: 100%; kinase still bound, per cent of control [34]: 2.6%; kinase still bound, per cent of control [23]: 61%; kinase still bound, per cent of control [24]: 100%; kinase still bound, per cent of control [25]: 86%; kinase still bound, per cent of control [26]: 76%; kinase still bound, per cent of control [27]: 65%; kinase still bound, per cent of control [28]: 95%; kinase still bound, per cent of control [29]: 98%; kinase still bound, per cent of control [30]: 79%
NC(=O)Nc1cc(-c2cccc(F)c2)sc1C(=O)N[C@@H]1CCCNC1 | 5% | 95% | 3.8% | 17% | 0.85% | 1% | 11% | 12% | 1.4% | 100% | 5.4% | 0.05% | 7.2% | 24% | 4.4% | 0.55% | 88% | 0.05% | 1.1% | 4.8% | kinase still bound, per cent of control [2]: 21%; kinase still bound, per cent of control [31]: 0.3%; kinase still bound, per cent of control [32]: 0.05%; kinase still bound, per cent of control [9]: 0%; kinase still bound, per cent of control [33]: 100%; kinase still bound, per cent of control [34]: 13%; kinase still bound, per cent of control [23]: 18%; kinase still bound, per cent of control [25]: 28%; kinase still bound, per cent of control [26]: 16%; kinase still bound, per cent of control [27]: 27%; kinase still bound, per cent of control [28]: 48%; kinase still bound, per cent of control [29]: 100%; kinase still bound, per cent of control [30]: 0%
